Marks after values point to notes of the source that are not given here.
Test system: male Sprague-Dawley rats
Assay: EEG/EMG/Tcore/LMA telemetry sleep study 3 (almorexant vs ZOL)
Format: in vivo, rat
Details: for REM:NR ratio: 6 h after dosing
Protocol: All rodent electroencephalograph (EEG) studies were performed at SRI International. Three groups of eight male Sprague-Dawley rats (300±25 g; Charles River, Wilmington, MA) were implanted with chronic recording devices (F40-EET, Data Sciences Inc., St Paul, MN) for continuous recordings of EEG, electromyograph (EMG), core body temperature (Tcore), and LMA via telemetry as previously described. Data recording and scoring were performed as previously reported (see also Supplemental Material and Methods). The EEG and EMG data were scored in 10 sec epochs for waking (W), rapid eye movement sleep (REM), and non-REM sleep (NR). Tcore and LMA (counts per minute) were analyzed as hourly means. Data from the EEG studies are reported in hourly means such that the hourly time ZT1 refers to the hour between time points ZT0 and ZT1.
For each of the three separate studies, a repeated measures counter-balanced design was employed in which each rat received five separate dosings. […] All dosings were administered ip in a volume of 2 ml/kg. A minimum of 3 d elapsed between doses. Dosing occurred during the middle of the rats’ normal active period at the start of ZT19 and was typically completed within 10 min. Animals were continuously recorded for 6 h prior to dosing and for 18 h following dosing.

[1] = 6 h Average, almorexant 10 mg/kg ip
[2] = 6 h Total, almorexant 10 mg/kg ip

## CNC(=O)[C@@H](c1ccccc1)N1CCc2cc(OC)c(OC)cc2[C@@H]1CCc1ccc(C(F)(F)F)cc1 [almorexant, (2R)-2-[(1S)-6,7-Dimethoxy-1-[2-(4-trifluoromethyl-phenyl)-ethyl]-3,4-dihydro-1H-isoquinolin-2-yl]-N-methyl-2-phenyl-acetamide]
30 mg/kg ip, first 2 h
  cumulative REM (in words): Cumulative REM also increased
100 mg/kg ip, 6 h period
  cumulative REM (in words): Cumulative REM also increased
100 mg/kg ip, ZT19, ZT20, ZT22-ZT24
  numbers of W and NR bouts (in words): increased numbers of W and NR bouts
100 mg/kg ip, ZT22, vs vehicle
  W bout duration (in words): decreased
100 mg/kg ip, ZT22-ZT24
  number of REM bouts (in words): increased
100 mg/kg ip, across 6 h, vs vehicle
  LMA (in words): LMA was decreased
30 and 100 mg/kg ip at ZT19, vs vehicle
  NR latency (in words): reduced NR latency
30 and 100 mg/kg ip, 2, 4 and 6 h
  cumulative NR (in words): increased cumulative NR
6 h Average, 30 mg/kg ip
  NR bout duration: 1.25 ±0.09^+
  REM bout duration: 1.32 ± 0.10
  W bout duration: 2.53 ± 0.41
6 h Average, 100 mg/kg ip
  NR bout duration: 1.20 ± 0.08^+
  REM bout duration: 1.20 ± 0.12
  W bout duration: 1.59 ± 0.20*^+
[1]
  NR bout duration: 1.22 ± 0.08^+
  REM bout duration: 1.11 ± 0.13
  W bout duration: 4.37 ± 1.09
6 h Total, 30 mg/kg ip
  Number of NR bouts: 103.0 ± 9.60*^+
  Number of REM bouts: 20.38 ± 3.12^+
6 h Total, 100 mg/kg ip
  Number of NR bouts: 127.0 ± 6.02*^+
  Number of REM bouts: 27.75 ± 3.26*^+
  Number of W bouts: 109.38 ±7.91*^+
[2]
  Number of NR bouts: 82.00 ±9.10
  Number of REM bouts: 18.00 ± 3.80^+
  Number of W bouts: 67.50 ± 8.89
10 mg/kg ip (almorexant)
  REM:NR ratio: 0.19±0.026^+
30 mg/kg ip
  REM:NR ratio: 0.20±0.022^+
100 mg/kg ip
  REM:NR ratio: 0.21±0.021^+
ZT1 and ZT6, 30 mg/kg ip, vs vehicle
  NR during the subsequent light period (in words): NR increased
ZT19, 30 mg/kg ip
  NR bout duration: 1.33 ± 0.14^+
  Number of NR bouts: 15.00 ± 1.83
  Number of REM bouts: 2.63 ± 0.50*^+
  Number of W bouts: 10.38 ± 1.53
  REM bout duration: 1.52 ± 0.26*^+
  W bout duration: 4.69 ± 1.87
ZT19, 100 mg/kg ip
  NR bout duration: 1.50 ± 0.14*^+
  Number of NR bouts: 14.00 ± 1.25
  Number of REM bouts: 1.25 ± 0.49
  Number of W bouts: 12.25 ± 1.74
  REM bout duration: 1.44 ± 0.38*^+
  W bout duration: 3.31 ± 0.65
ZT19, almorexant 10 mg/kg ip
  NR bout duration: 1.27 ± 0.15^+
  Number of NR bouts: 8.63 ± 1.82
  Number of REM bouts: 1.75 ± 0.53
  Number of W bouts: 6.63 ± 1.50
  REM bout duration: 0.76 ± 0.19*^+
  W bout duration: 9.90 ± 3.21
ZT20, 30 mg/kg ip
  NR bout duration: 1.34 ± 0.08^+
  Number of NR bouts: 19.75 ± 2.25
  Number of REM bouts: 4.38 ± 1.08^+
  Number of W bouts: 16.38 ± 1.68^+
  REM bout duration: 1.37 ± 0.05^+
  W bout duration: 1.96 ± 0.75
ZT20, 100 mg/kg ip
  NR bout duration: 1.37 ± 0.12^+
  Number of NR bouts: 22.25 ± 2.36
  Number of REM bouts: 3.00 ± 1.20
  Number of W bouts: 18.38 ± 1.40*^+
  REM bout duration: 1.08 ± 0.15^+
  W bout duration: 1.41 ± 0.13^+
ZT20, almorexant 10 mg/kg ip
  NR bout duration: 1.31 ± 0.09^+
  Number of NR bouts: 19.38 ± 2.38
  Number of REM bouts: 4.13 ± 0.97^+
  Number of W bouts: 14.88 ± 2.05^+
  REM bout duration: 1.16 ± 0.17^+
  W bout duration: 2.37 ± 0.70
ZT21, 30 mg/kg ip
  NR bout duration: 1.27 ± 0.09^+
  Number of NR bouts: 20.75 ± 1.39
  Number of REM bouts: 5.25 ± 1.16^+
  Number of W bouts: 18.38 ± 1.39^+
  REM bout duration: 1.26 ± 0.14
  W bout duration: 1.43 ± 0.30^+
ZT21, 100 mg/kg ip
  NR bout duration: 1.31 ± 0.15^+
  Number of NR bouts: 23.75 ± 1.47
  Number of REM bouts: 6.75 ± 1.06^+
  Number of W bouts: 20.88 ± 2.21^+
  REM bout duration: 1.28 ± 0.18
  W bout duration: 0.93 ± 0.15^+
ZT21, almorexant 10 mg/kg ip
  NR bout duration: 1.17 ± 0.16^+
  Number of NR bouts: 15.88 ± 2.00
  Number of REM bouts: 4.75 ± 1.13^+
  Number of W bouts: 13.50 ± 1.73
  REM bout duration: 1.40 ± 0.16
  W bout duration: 3.03 ± 0.90
ZT22, 30 mg/kg ip
  NR bout duration: 1.04 ± 0.11^+
  Number of NR bouts: 17.25 ± 2.58
  Number of REM bouts: 2.88 ± 0.74
  Number of W bouts: 14.88 ± 1.99
  REM bout duration: 1.26 ± 0.17
  W bout duration: 3.07 ± 0.83
ZT22, 100 mg/kg ip
  NR bout duration: 1.12 ± 0.15
  Number of NR bouts: 23.88 ± 1.34
  Number of REM bouts: 7.38 ± 1.49*^+
  Number of W bouts: 20.00 ± 0.89*^+
  REM bout duration: 1.07 ± 0.18
  W bout duration: 1.13 ± 0.15^+
ZT22, almorexant 10 mg/kg ip
  NR bout duration: 1.07 ± 0.19^+
  Number of NR bouts: 14.38 ± 2.58
  Number of REM bouts: 2.88 ± 0.81
  Number of W bouts: 13.00 ± 2.92
  REM bout duration: 1.05 ± 0.36
  W bout duration: 4.74 ± 1.57
ZT23, 30 mg/kg ip
  NR bout duration: 1.03 ± 0.12
  Number of NR bouts: 16.63 ± 2.88
  Number of REM bouts: 2.88 ± 0.93
  Number of W bouts: 15.13 ± 2.71
  REM bout duration: 0.91 ± 0.19
  W bout duration: 5.53 ± 3.36
ZT23, 100 mg/kg ip
  NR bout duration: 0.90 ± 0.07
  Number of NR bouts: 23.13 ± 2.61
  Number of REM bouts: 4.00 ± 0.82
  Number of W bouts: 21.00 ± 3.02
  REM bout duration: 1.16 ± 0.12
  W bout duration: 2.15 ± 0.68
ZT23, almorexant 10 mg/kg ip
  NR bout duration: 1.11 ± 0.19
  Number of NR bouts: 8.00 ± 1.68
  Number of REM bouts: 1.25 ± 0.65
  Number of W bouts: 6.63 ± 1.88
  REM bout duration: 0.61 ± 0.17
  W bout duration: 12.59 ± 3.87
ZT24, 30 mg/kg ip
  NR bout duration: 1.50 ± 0.24
  Number of NR bouts: 19.88 ± 2.63
  Number of REM bouts: 2.38 ± 0.98
  Number of W bouts: 12.00 ± 2.70
  REM bout duration: 0.98 ± 0.15
  W bout duration: 4.32 ± 1.06
ZT24, 100 mg/kg ip
  NR bout duration: 1.14 ± 0.08
  Number of NR bouts: 19.88 ± 1.14
  Number of REM bouts: 5.25 ± 1.08*^+
  Number of W bouts: 15.88 ± 1.14
  REM bout duration: 1.16 ± 0.14^+
  W bout duration: 1.92 ± 0.34
ZT24, almorexant 10 mg/kg ip
  NR bout duration: 1.14 ± 0.14
  Number of NR bouts: 15.25 ± 2.30
  Number of REM bouts: 3.25 ± 0.94
  Number of W bouts: 12.00 ± 2.10
  REM bout duration: 1.02 ± 0.21^+
  W bout duration: 4.00 ± 1.17
First hour after treatment
  REM bout duration (in words): significantly increased REM bout duration
High concentration tested, across 6 h
  Tcore (in words): decreased Tcore
Highest dose (100 mg/kg), latter half of the dark period
  REM bouts compared to vehicle: 2 to 3 fold
Only 30 mg/kg ip at ZT19, vs vehicle
  latency to REM sleep (in words): decreased latency to REM sleep

— paper PMC3388080 (PLoS ONE, 2012)
